Values quoted from earlier work, collected in US8153634B2, “Carbinol derivatives having cyclic linker” (Kowa Company, Ltd., priority 2008, dated 2012).

Tested on: LXRβ (versus LXRα)
Settings: reported in non-patent document 22

Structure (SMILES): O=C(O)Cc1ccc(COc2cccc(-c3c(Cc4ccccc4)cnc4c(C(F)(F)F)cccc34)c2)cc1 [WAY-254011]
- LXRβ-selective binding affinity, α/β ratio: 1 to 5
